Measurements taken from ChEMBL document CHEMBL1201862, “PubChem BioAssay data set” (2004).
Values joined by “and” are separate entries in the source; they are usually repeats but may differ in a detail not shown here. Identical values can stand only once.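 Step 1: Grow cells in 96-well plates. Step 2: Expose to compound for 48 hours at 5 concentrations. Step 3: Interpolate endpoints linearly; if unreached, use highest concentration. Abbreviation: GI50, concentration required for 50% inhibition of growth.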 Active and inactive are the calls of the source. Cut-off read from the data, not from the text of the source: active = GI50 up to about 1.1 µM and inactive = higher.

Legend:
Assay in all cases: NCI-60 cell line screen, 48 h
M14 = test system: M14
KM12 = test system: KM12
HCC 2998 = test system: HCC 2998
HT-29 = test system: HT-29
NCI-H522 = test system: NCI-H522
M19-MEL = test system: M19-MEL
UACC-62 = test system: UACC-62
SN12C = test system: SN12C
XF498 = test system: XF498
OVCAR-4 = test system: OVCAR-4
SF-295 = test system: SF-295
SK-MEL-5 = test system: SK-MEL-5
NCI-H23 = test system: NCI-H23
CAKI-1 = test system: CAKI-1
A498 = test system: A498
HOP-18 = test system: HOP-18
DMS-114 = test system: DMS-114
Hs-578T = test system: Hs-578T
MDA-MB-231 = test system: MDA-MB-231
DU-145 = test system: DU-145

Row | SMILES | GI50 (M14) | GI50 (KM12) | GI50 (HCC 2998) | GI50 (HT-29) | GI50 (NCI-H522) | GI50 (M19-MEL) | GI50 (UACC-62) | GI50 (SN12C) | GI50 (XF498) | GI50 (OVCAR-4) | GI50 (SF-295) | GI50 (SK-MEL-5) | GI50 (NCI-H23) | GI50 (CAKI-1) | GI50 (A498) | GI50 (HOP-18) | GI50 (DMS-114) | GI50 (Hs-578T) | GI50 (MDA-MB-231) | GI50 (DU-145)
1 | C=CC1(C)CC(=O)C2(O)C(C)(O1)C(OC(C)=O)C(O)C1C(C)(C)CCC(O)C12C (stereo unspecified) | > 100 µM (inactive) | 0.863 µM (active) | > 146 µM (inactive) | 49.8 µM (inactive) | 132 µM (inactive) | 104 µM (inactive) | 69.7 µM (inactive) | 30.6 µM (inactive) | 61.8 µM (inactive) | > 54.8 µM (inactive) | > 142 µM (inactive) | 89.3 µM (inactive) | 115 µM (inactive) | 1.37 µM (inactive) | > 150 µM (inactive) | 41.3 µM (inactive) | 52.8 µM (inactive) |  |  | 
2 | Cc1c(Cl)cccc1NC(=O)CC1Sc2ccccc2NC1=O (stereo unspecified) | 32.3 µM (inactive) and 22.6 µM (inactive) | 11 µM (inactive) and 16.6 µM (inactive) | 14.3 µM (inactive) and 12 µM (inactive) | 13.9 µM (inactive) | 27.7 µM (inactive) and 21 µM (inactive) | 46.9 µM (inactive) and 32 µM (inactive) |  | 25.1 µM (inactive) and 47.2 µM (inactive) | 22.9 µM (inactive) and 22.8 µM (inactive) | 22 µM (inactive) and 16.5 µM (inactive) | 37.5 µM (inactive) and 21.9 µM (inactive) | 14.2 µM (inactive) and 10.5 µM (inactive) | 35.9 µM (inactive) and 24 µM (inactive) | 36.3 µM (inactive) and 42.2 µM (inactive) | 18.3 µM (inactive) and 16.5 µM (inactive) | 13.2 µM (inactive) and 15.1 µM (inactive) | 27.3 µM (inactive) and 18.5 µM (inactive) | 2.99 µM (inactive) | 14 µM (inactive) | 53.7 µM (inactive)
3 | C=CC(=O)N1C/C(=C\c2ccccc2)C(=O)/C(=C/c2ccccc2)C1 | 1.71 µM (inactive) | 0.989 µM (active) | 1.95 µM (inactive) | 0.467 µM (active) | 1.24 µM (inactive) | 0.979 µM (active) | 1.19 µM (inactive) | 1.67 µM (inactive) | 1.7 µM (inactive) | 2.16 µM (inactive) | 2.1 µM (inactive) | 1.61 µM (inactive) | 2.14 µM (inactive) | 2.83 µM (inactive) | 2 µM (inactive) | 3.24 µM (inactive) | 1.01 µM (active) |  | 2 µM (inactive) | 5.13 µM (inactive)
4 | CCCCCCCCCCCCCC(=O)NO | 15.8 µM (inactive) | 9.42 µM (inactive) | 14.4 µM (inactive) | 8.99 µM (inactive) | 1.01 µM (active) | 24 µM (inactive) | 6.68 µM (inactive) | 8.55 µM (inactive) | 24.4 µM (inactive) | 6.79 µM (inactive) | 21.4 µM (inactive) | 9.64 µM (inactive) | 8.22 µM (inactive) | 17.3 µM (inactive) | 23.5 µM (inactive) | 34.4 µM (inactive) | 3.6 µM (inactive) |  | 7.01 µM (inactive) | 3.35 µM (inactive)
5 | C=C(C)[C@H]1CC[C@@]2(C)C(C1)[C@H](C)CC[C@@H]2O (stereo partly specified) | > 100 µM (inactive) | > 100 µM (inactive) | > 100 µM (inactive) | 70.5 µM (inactive) | 47 µM (inactive) | > 100 µM (inactive) | > 100 µM (inactive) | > 100 µM (inactive) | > 100 µM (inactive) | > 100 µM (inactive) | > 100 µM (inactive) | > 100 µM (inactive) | > 100 µM (inactive) | > 100 µM (inactive) | > 100 µM (inactive) | > 100 µM (inactive) | > 100 µM (inactive) |  |  | 
6 | C=CCNC1=NC(=O)C(CC(=O)Nc2ccc([N+](=O)[O-])cc2[N+](=O)[O-])S1 (stereo unspecified) | > 100 µM (inactive) | > 100 µM (inactive) | > 100 µM (inactive) | > 100 µM (inactive) | > 100 µM (inactive) | > 100 µM (inactive) | > 100 µM (inactive) | > 100 µM (inactive) | > 100 µM (inactive) | 95.7 µM (inactive) | > 100 µM (inactive) | > 100 µM (inactive) | > 100 µM (inactive) | 83.8 µM (inactive) | > 100 µM (inactive) | > 100 µM (inactive) | 66.5 µM (inactive) |  |  | 
7 | CC[C@@]12N=C(N(C)C)C[C@]1(O)ON=C2C | > 100 µM (inactive) | > 100 µM (inactive) | > 100 µM (inactive) | > 100 µM (inactive) | > 100 µM (inactive) | > 100 µM (inactive) |  | > 100 µM (inactive) | > 100 µM (inactive) | > 100 µM (inactive) | > 100 µM (inactive) | > 100 µM (inactive) | > 100 µM (inactive) | > 100 µM (inactive) | > 100 µM (inactive) | > 100 µM (inactive) | > 100 µM (inactive) |  |  | 
8 | O=C(O)c1ccc(C2=Cc3cc(Cl)ccc3OC2)cc1 | > 100 µM (inactive) | > 100 µM (inactive) | > 100 µM (inactive) | > 100 µM (inactive) | > 100 µM (inactive) | > 100 µM (inactive) | > 100 µM (inactive) | > 100 µM (inactive) | > 100 µM (inactive) |  | > 100 µM (inactive) | > 100 µM (inactive) | > 100 µM (inactive) | > 100 µM (inactive) | > 100 µM (inactive) | 55.1 µM (inactive) | > 100 µM (inactive) |  |  | 
9 | CC1=C(C(=O)Nc2ccccc2)C(c2cc(Cl)cc(Cl)c2)C(C(=O)Nc2ccccc2)=C(C)N1 | 12.4 µM (inactive) | 2.92 µM (inactive) | 11.6 µM (inactive) | 4.65 µM (inactive) | 5.36 µM (inactive) | 10.4 µM (inactive) | 3.94 µM (inactive) | 10.8 µM (inactive) | 13.4 µM (inactive) | 2.43 µM (inactive) | 10.9 µM (inactive) | 13.8 µM (inactive) | 5.37 µM (inactive) | 12.1 µM (inactive) | 22.6 µM (inactive) | 12.5 µM (inactive) | 4.26 µM (inactive) |  |  | 
10 | Cc1ccccc1-c1c(N)nc(N)nc1C(=O)Nc1nccs1 | > 100 µM (inactive) | > 100 µM (inactive) | > 100 µM (inactive) | > 100 µM (inactive) | > 100 µM (inactive) | > 100 µM (inactive) | > 100 µM (inactive) | > 100 µM (inactive) | > 100 µM (inactive) | > 100 µM (inactive) | > 100 µM (inactive) | > 100 µM (inactive) | > 100 µM (inactive) | > 100 µM (inactive) | > 100 µM (inactive) | > 100 µM (inactive) | > 100 µM (inactive) |  |  | 
11 | COc1cc(/C=C\c2ccc(O)cc2)cc(OC)c1OC | 22.2 µM (inactive) | 0.883 µM (active) | > 23.3 µM (inactive) | 15.3 µM (inactive) | 2.88 µM (inactive) | 3.66 µM (inactive) | 3.37 µM (inactive) | 4.9 µM (inactive) | 9.98 µM (inactive) | 8.97 µM (inactive) | 2.47 µM (inactive) | 1.18 µM (inactive) | 0.505 µM (active) | 4.71 µM (inactive) | 29.4 µM (inactive) | 22.3 µM (inactive) | 2.48 µM (inactive) |  |  | 
12 | CCCCCCCCCCCCCC(=O)O[C@H]1CC[C@H](NC(=O)[C@H](OC)[C@H](O)[C@@H](O)[C@H](O)/C=C/C(C)C)C(=O)NC1 [BENGAMIDE A] | 0.00601 µM (active) | 0.00512 µM (active) | 0.117 µM (active) | 0.00619 µM (active) | 0.011 µM (active) | 0.0033 µM (active) | 0.00512 µM (active) | 0.00542 µM (active) | 0.0147 µM (active) | 0.0255 µM (active) | 0.0927 µM (active) | 0.0105 µM (active) | 0.0113 µM (active) | 0.292 µM (active) | 0.0389 µM (active) | > 10 µM (inactive) | 0.00512 µM (active) | 0.237 µM (active) | 0.137 µM (active) | 0.731 µM (active)
